Tested on: total salivary bacterial pool (mixed oral bacteria)
Assay: Malodour assay using lead acetate paper (H2S production by pooled salivary bacteria)
Assay type: cell-based
Set-up: concentration or dose not given beside the values
Settings: pooled human saliva bacteria OD 0.4, 96 well plate, incubated overnight, ΔE of lead acetate paper; actives at the weight % of the composition
Procedure: Malodour Assay Using Lead Acetate Paper:
The following tests were done to find out the efficacy of different compositions inside and outside the scope of the present invention:
The early morning saliva from different volunteer (5 samples) were pooled and centrifuged (Eppendorf refrigerated centrifuge 5810R at 6300 rcf/11.5 G) for 10 minutes. After that, the Supernatant which is saliva and the pellet—mixed bacterial pool (oral bacteria e.g. Streptococcus. mitis, Streptococcus. mutans, Nisseria. flava, Rothia. dentocariosa etc.,) was separated. The saliva was then filter sterilized by passing through the 50 mL conical 0.2 μm PES sterile filter (VWR lab products limited). The OD of total salivary bacterial pool culture was adjusted to 0.4 by spectrophotometer (Shimadzu UV Spectrophotometer—UV-1800) for higher pool of bacteria which is required for the assay. The assay was set up in a 96 well plate with respective culture control and DMSO control. The total reaction volume was 200 μL/well which comprises of the following: 45 μl 0.1% L-cysteine-HCl (Sigma, C1276)+TSB (Bacto, 211825, 30 g/L)+50 μL sterile Saliva+75 μL Culture+30 μL active (as per the weight % disclosed in the following table 2)+sterile distilled water.
Then the actives at desired concentration were added and the remaining volume was adjusted with sterile distilled water. After that, the wells were mixed well, and lead acetate filter was placed above the wells to capture the H2S released by the bacteria. […] The intensity of the spots was measured using a LAB reader (Minolta spectrophotometer CM 2600D). The colour reading was expressed in LAB, L* defines lightness, A* denotes the red/green value and B* the yellow/blue value. Then ΔL, ΔA and ΔB is calculated using this formula ΔL=L control−L sample, ΔA=L control−L sample, AB=L control−L sample. The total colour difference which is expressed as ΔE is calculated using this formula ΔE=√{square root over (((ΔL)^2+(ΔA)^2+(ΔB)^2))}. […] The total fold change of H2S inhibition over the control was calculated for the individual actives.

Structure (SMILES) | Fold Change (total fold change of H2S inhibition over the control)
C=CCc1ccc(O)c(-c2ccc(O)c(CC=C)c2)c1 [B, honokiol] | 1.6 ± 1.8
C=CCc1ccc(O)c(-c2ccc(O)c(CC=C)c2)c1 [C, honokiol] | 1.5 ± 1.8
CC(O)CN(CCN(CC(C)O)CC(C)O)CC(C)O (stereo not drawn) [Example A, tetrahydroxypropyl ethylenediamine] | 0.9±0.3

— patent publication US12311044B2, “Antimicrobial composition” (priority 2018, dated 2025)
